Data taken from patent US20100267712A1, “ISOINDOLINE COMPOUNDS FOR THE TREATMENT OF SPINAL MUSCULAR ATROPHY AND OTHER USES” (The United States of America, as represented by the …, priority 2007, published 2010).

System: SMN2-linked luciferase-reporter gene construct
Experiment: SMN Splice Reporter Assay (SMN2-linked luciferase reporter)
Type: cell-based
Conditions: for EC50: cervical carcinoma cell lines, SMN2 splice luciferase reporter; for Fold Increase: fold-increase of luciferase over baseline reading of transformed cells without any test compound
Description: As previously discussed, SMN1 is the gene deleted in SMA patients; the SMN2 gene remains intact in both SMA and normal patients. Therefore, SMN2 provides a potential means of increasing SMN production in SMA patients and is, thus, a target for developing SMA treatments. SMN2 is identical to SMN1 with the exception of a single base pair change that results in reduced expression of the gene. The reduction is based on the creation of an alternatively spliced RNA that produces an unstable protein carrying a deletion of exon 7. Both full length SMN and exon 7 deleted SMN are produced by the SMN2 gene via alternative RNA splicing, but the major product is the unstable deleted form.
Cervical carcinoma cell lines were transformed with a SMN2-linked luciferase-reporter gene construct. The reporter is designed to detect shifts in the alternative splicing of SMN2 sequences. In particular, the reporter is constructed as a fusion of the alternatively spliced sequences of the SMN2 gene and the luciferase gene. Luciferase sequences are in the correct translational reading frame only when the SMN2 sequences are spliced according to the normal SMN1 mechanism (e.g., splicing to include exon 7), which allows for translation of the stable SMN protein. Compounds were tested in the assay by administering the compound to the cell line and detecting an increase in the luciferase activity. The assay is described in greater detail in Zhang et al., Gene Ther., 8: 1532-8 (2001). Compounds were administered as described in Lunn et al, Chem. & Biol, 11: 1489-1493 (2004).
The results are reported as a fold-increase over a baseline reading of transformed cells without any test compound. The EC50 value also is reported in Table 1 for some exemplary compounds of the invention.

Row | Compound | EC50 [nM] | Fold Increase
1 | O=C1c2ccccc2CN1c1ccc(Br)cn1 [Example 112648] | 456 | 1.264
2 | O=C1c2ccccc2CN1c1ccc(Br)nc1 [Example 112649] | 18200 | 1.373
3 | CC(C)(C)OC(=O)Cc1ccc(N2Cc3ccccc3C2=O)nc1 [Example 112719] | 6580 | 1.324
4 | COC(=O)C1CCc2cc(N3Cc4ccccc4C3=O)ccc21 (centres unmarked) [Example 113487] | 143 | 1.259
5 | O=C(O)C1CCc2cc(N3Cc4ccccc4C3=O)ccc21 (centres unmarked) [Example 113488] | – | 1.24
6 | O=C1c2ccccc2CN1c1ccc2c(c1)CCC2 [Example 116070] | 67 | 1.445
7 | O=C1c2ccccc2CN1c1ccc2c(c1)OCO2 [Example 116238] | 2450 | 1.235
8 | COc1ccc2c(c1)C(=O)N(c1ccc3c(c1)CCC3)C2 [Example 116241] | 98 | 1.512
9 | COc1ccc2c(c1)C(=O)N(c1ccc3c(c1)OCO3)C2 [Example 116360] | – | 1.282
10 | O=C1c2ccccc2CN1c1ccc2c(c1)OC(F)(F)O2 [Example 116485] | 2240 | 1.202
11 | COc1ccc2c(c1)C(=O)N(c1ccc3c(c1)OC(F)(F)O3)C2 [Example 116565] | 519 | 1.3
12 | Cc1ccc(N2Cc3cc4c(cc3C2=O)OCCO4)nc1 [Example 118418] | 63 | 1.496
13 | COc1ccc2c(c1)C(=O)N(c1ccc(C)cn1)C2 [Example 118553] | 166 | 1.308
14 | Cc1ccc(N2Cc3cc4c(cc3C2=O)OCCO4)cn1 [Example 118554] | 708 | 1.364
15 | COc1ccc2c(c1)C(=O)N(c1ccc3ccn(C)c3c1)C2 [Example 118561] | 143 | 1.74
16 | COc1ccc2c(c1)C(=O)N(c1ccc(C)nc1)C2 [Example 118735] | – | 1.149

Row | Compound | EC50 [nM] | Fold Increase
17 | O=C1c2cc3c(cc2CN1c1ccc(Br)cn1)OCCO3 [Example 118736] | 137 | 1.413
18 | COc1ccc2c(c1)C(=O)N(c1ccc(Br)cn1)C2 [Example 118737] | 415 | 1.358
19 | O=C1c2cc3c(cc2CN1c1ccc2sccc2c1)OCCO3 [Example 118900] | 66 | 1.399
20 | Cn1ccc2ccc(N3Cc4cc5c(cc4C3=O)OCCO5)cc21 [Example 118902] | 29 | 1.774
21 | O=C1c2cc3c(cc2CN1c1ccc2ccoc2c1)OCCO3 [Example 118903] | 6 | 1.458
22 | O=C1c2cc(OC(F)F)ccc2CN1c1ccc2c(c1)CCC2 [Example 119337] | 157 | 1.66
23 | COc1ccc2c(c1)C(=O)N(c1ccc3c(c1)NC(=O)CO3)C2 [Example 119516] | – | 1.182
24 | CCCn1ccc2cc(N3Cc4ccc(OC)cc4C3=O)ccc21 [Example 119517] | 439 | 1.59
25 | COc1ccc2c(c1)C(=O)N(c1ccc3sccc3c1)C2 [Example 119519] | 31 | 1.666
26 | CC=Cc1ccc2c(c1)C(=O)N(c1ccc3c(ccn3C)c1)C2 [Example 119520] | 45 | 1.54
27 | COc1ccc2c(c1)C(=O)N(c1ccc3[nH]ccc3c1)C2 [Example 119657] | – | 1.21
28 | CN(C)c1ccc2c(c1)C(=O)N(c1ccc3c(c1)CCN3C)C2 [Example 119660] | – | 1.074
29 | Cn1ccc2cc(N3Cc4c(N)cccc4C3=O)ccc21 [Example 120120] | – | 1.094
30 | COc1cccc2c1C(=O)N(c1ccc3ccn(C)c3c1)C2 [Example 120124] | – | 1.17
31 | COc1ccc2c(c1)C(=O)N(c1ccc3ccn(C(C)C)c3c1)C2 [Example 120283] | – | 1.273

Continued, in another order:

Row | EC50 [nM] | Compound | Fold Increase
32 | 235 | COc1ccc2c(c1)C(=O)N(c1ccc(C(C)C)cn1)C2 [Example 119654] | 1.44
33 | 491 | COc1ccc2c(c1)C(=O)N(c1ccc(C(C)C)nc1)C2 [Example 119655] | 1.372
34 | 78 | COc1ccc2c(c1)C(=O)N(c1ccc3c(c1)OCC(=O)N3)C2 [Example 119656] | 1.375
35 | 842 | COc1cccc2c1CN(c1ccc3c(ccn3C)c1)C2=O [Example 119865] | 1.444
36 | 421 | COc1ccc2c(c1)C(=O)N(c1ccc3nc[nH]c3c1)C2 [Example 119866] | 1.313
37 | 2280 | CCCn1ccc2ccc(N3Cc4ccc(OC)cc4C3=O)cc21 [Example 119868] | 1.582
38 | 242 | COc1ccc2c(c1)CN(c1ccc3ccn(C)c3c1)C2=O [Example 119870] | 1.83
39 | 829 | Cn1ccc2ccc(N3Cc4ccc(Br)cc4C3=O)cc21 [Example 120117] | 1.519
40 | 453 | Cn1ccc2ccc(N3Cc4cc(Br)ccc4C3=O)cc21 [Example 120118] | 1.893
41 | 1100 | COc1cccc2c1CN(c1ccc3ccn(C)c3c1)C2=O [Example 120123] | 1.966
42 | 540 | COc1cccc2c1C(=O)N(c1ccc3c(ccn3C)c1)C2 [Example 120125] | 1.332
43 | 161 | Cc1cccc2c1C(=O)N(c1ccc3c(ccn3C)c1)C2 [Example 120278] | 1.502
44 | 242 | Cc1cccc2c1C(=O)N(c1ccc3ccn(C)c3c1)C2 [Example 120279] | 1.784
45 | 455 | Cn1ccc2cc(N3Cc4cccc(Br)c4C3=O)ccc21 [Example 120280] | 1.527
46 | 397 | Cn1ccc2ccc(N3Cc4cccc(Br)c4C3=O)cc21 [Example 120281] | 1.788
47 | 737 | Cn1ccc2ccc(N3Cc4cccc([N+](=O)[O-])c4C3=O)cc21 [Example 120282] | 1.291
48 | 7870 | COCCn1ccc2ccc(N3Cc4ccc(OC)cc4C3=O)cc21 [Example 120284] | 1.19
49 | 158 | Cn1ccc2cc(N3Cc4ccccc4C3=O)ccc21 [Example 120287] | 1.433

Row | EC50 [nM] | Compound | Fold Increase
50 | 408 | Cn1ccc2cc(N3Cc4ccc(-c5ccccc5)cc4C3=O)ccc21 [Example 120288] | 1.364
51 | 1030 | Cn1ccc2cc(N3Cc4c(Br)cccc4C3=O)ccc21 [Example 120289] | 1.39
52 | 609 | Cn1ccc2ccc(N3Cc4c(Br)cccc4C3=O)cc21 [Example 120290] | 1.386
53 | 111 | COc1ccc2c(c1)C(=O)N(c1ccc3c(c1)ncn3C)C2 [Example 120291] | 1.362
54 | 294 | Cn1ccc2cc(N3Cc4cccc(N)c4C3=O)ccc21 [Example 120427] | 1.606
55 | 338 | Cn1ccc2cc(N3Cc4cccc([N+](=O)[O-])c4C3=O)ccc21 [Example 120428] | 1.262
56 | 152 | Cn1ccc2ccc(N3Cc4cccc(N)c4C3=O)cc21 [Example 120429] | 1.745
57 | 306 | COCn1ccc2ccc(N3Cc4ccc(Br)cc4C3=O)cc21 [Example 120430] | 1.374
58 | 120 | COCn1ccc2ccc(N3Cc4ccc(OC)cc4C3=O)cc21 [Example 120431] | 1.311
59 | 830 | COc1ccc2c(c1)C(=O)N(c1ccc3c(c1)n(C)c(=O)n3C)C2 [Example 120432] | 1.234
60 | 977 | COc1ccc2c(c1)C(=O)N(c1ccc3[nH]c(=O)[nH]c3c1)C2 [Example 120433] | 1.296
61 | 54 | Cc1ccc2c(c1)CN(c1ccc3ccn(C)c3c1)C2=O [Example 120434] | 1.708
62 | 640 | Cn1ccc2ccc(N3Cc4ccccc4C3=O)cc21 [Example 120435] | 1.585
63 | 509 | Cn1ccc2ccc(N3Cc4ccc(OC(F)F)cc4C3=O)cc21 [Example 120591] | 1.709
64 | 112 | Cn1ccc2cc(N3Cc4cc(Br)ccc4C3=O)ccc21 [Example 120592] | 1.51
65 | 14 | COc1ccc2c(c1)C(=O)N(c1ccc3sc(C)nc3c1)C2 [Example 120593] | 1.322
66 | 777 | COc1ccc2c(c1)C(=O)N(c1ccc3c(c1)c(C)c(C)n3C)C2 [Example 120597] | 1.434
67 | 183 | COc1ccc2c(c1)C(=O)N(c1ccc3ncn(C)c3c1)C2 [Example 120598] | 1.552
